Measured values: US4177269A, “Novel 17-esters of 17α-hydroxy gestogens, compositions containing such compounds, processes for their preparation and methods of treatment therewith” (Aktiebolaget Leo, priority 1976, dated 1979)

Legend:
Hepatome AH 130 = Hepatome AH 130 tumour growth inhibition in rats; format: in vivo, Sprague-Dawley rats; conditions: one i.p. injection, result in words
From the text: LD50 is the dose that causes a 50 percent lethality of the animals, and ED50 is the dose that causes a 50 percent reduction of tumour size.
(§1) The experimental design and the interpretation of the results are in accordance with the standards set by the CCNSC (Cancer Chemotherpy Reports, January 1959 and December 1962).
Experimental animals: Sprague-Dawley rats.
Tumour implant: 5 × 10^6 tumour cells i.p.
(§2) Therapy: One injection i.p. on the day following implanta-
(§3) Termination: The animals are killed on the 8th day.
Evaluation: Weights of tumours of test animals are compared
with those of control animals.

[1] = tested on: Ehrlich ascites tumour, ELD hyperdiploid; experiment: Ehrlich ascites tumour, ELD hyperdiploid (46 chromosomes), growth inhibition in mice; format: in vivo, SPF NMRI mice; conditions: one i.p. injection, result in words
From the text: as §1
Ehrlich ascites tumour, ELD hyperdiploid
Experimental animals: SPF NMRI mice.
Tumour implant: 2 × 10^6 tumour cells i.p.
as §2, §3
Evaluation: Weight of tumours of test animals compared with
those of control animals.

Structure (SMILES): CC(=O)[C@@]1(OC(=O)C(C)OC(=O)CCCCc2ccc(N(CCCl)CCCl)cc2)CC[C@H]2[C@@H]3C=C(Cl)C4=CC(=O)CC[C@]4(C)[C@H]3CC[C@@]21C (stereo partly drawn) [3:8, 6-chloro-17α-/2-(5-(4-(N,N-bis(2-chloroethyl)amino)phenyl)pentanoyloxy)propanoyloxy/pregna-4,6-diene-3,20-dione]
- antitumour activity (Hepatome AH 130): exhibit antitumour activity
- antitumour activity [1]: exhibit antitumour activity

Structure (SMILES): CC(=O)[C@@]1(OC(=O)C(C)OC(=O)/C=C/c2ccccc2N(CCCl)CCCl)CC[C@H]2[C@@H]3C=C(C)C4=CC(=O)CC[C@]4(C)[C@H]3CC[C@@]21C (stereo partly drawn) [3:9, 17α-/2-((2E)-3-(2-(N,N-bis(2-chloroethyl)amino)phenyl)propenoyloxy)propanoyloxy/-6-methylpregna-4,6-diene-3,20-dione]
- antitumour activity (Hepatome AH 130): exhibit antitumour activity
- antitumour activity [1]: exhibit antitumour activity

Structure (SMILES): CC(=O)[C@@]1(OC(=O)CCCCOC(=O)C(N)Cc2ccc(N(CCCl)CCCl)cc2)CC[C@H]2[C@@H]3C[C@H](F)C4=CC(=O)CC[C@]4(C)[C@H]3CC[C@@]21C (stereo partly drawn) [3:10, 17α-/5-(2-amino-3-(4-(N,N-bis(2-chloroethyl)amino)phenyl)propanoyloxy)pentanoyloxy/-6α-fluoropregn-4-ene-3,20-dione]
- antitumour activity (Hepatome AH 130): exhibit antitumour activity

Structure (SMILES): CC(=O)[C@@]1(OC(=O)CCCOC(=O)[C@@H](N)Cc2ccc(N(CCCl)CCCl)cc2)CC[C@H]2[C@@H]3CCC4=CC(=O)CC[C@]4(C)[C@H]3CC[C@@]21C [3:13, 17-[4-((2S)-2-amino-3-(4-(N,N-bis(2-chloroethyl)amino)phenyl)propanoyloxy)butanoyloxy]pregn-4-ene-3,20-dione]
- antitumour activity (Hepatome AH 130): exhibit antitumour activity

Structure (SMILES): CC(=O)N[C@@H](Cc1ccc(N(CCCl)CCCl)cc1)C(=O)OCCCC(=O)O[C@]1(C(C)=O)CC[C@H]2[C@@H]3CCC4=CC(=O)CC[C@]4(C)[C@H]3CC[C@@]21C [3:15, 17-[4-((2S)-2-acetamido-3-(4-(N,N-bis(2-chloroethyl)amino)phenyl)propanoyloxy)butanoyloxy]pregn-4-ene-3,20-dione]
- antitumour activity (Hepatome AH 130): exhibit antitumour activity

Structure (SMILES): CC(=O)[C@@]1(OC(=O)COC(=O)Cc2ccc(N(CCCl)CCCl)cc2)CC[C@H]2[C@@H]3C=C(C)C4=CC(=O)CC[C@]4(C)[C@H]3CC[C@@]21C [3:17, 17α-[4-(N,N-bis(2-chloroethyl)amino)phenylacetoxyacetoxy]-6-methylpregna-4,6-diene-3,20-dione]
- antitumour activity (Hepatome AH 130): exhibit antitumour activity

Structure (SMILES): CC(=O)[C@@]1(OC(=O)COC(=O)[C@@H](N)Cc2cccc(N(CCCl)CCCl)c2)CC[C@H]2[C@@H]3CCC4=CC(=O)CC[C@]4(C)[C@H]3CC[C@@]21C [3:19, 17-[(2S)-2-amino-3-(3-(N,N-bis(2-chloroethyl)amino)phenyl)propanoyloxyacetoxy]pregn-4-ene-3,20-dione]
- antitumour activity (Hepatome AH 130): exhibit antitumour activity

Structure (SMILES): CC(=O)[C@@]1(OC(=O)COC(=O)[C@@H](N)Cc2ccccc2N(CCCl)CCCl)CC[C@H]2[C@@H]3CCC4=CC(=O)CC[C@]4(C)[C@H]3CC[C@@]21C [3:20, 17-[(2S)-2-amino-3-(2-(N,N-bis(2-chloroethyl)amino)phenyl)propanoyloxyacetoxy]pregn-4-ene-3,20-dione]
- antitumour activity (Hepatome AH 130): exhibit antitumour activity

Structure (SMILES): CC(=O)[C@@]1(OC(=O)CCCOC(=O)c2ccc(C)c(N(CCCl)CCCl)c2)CC[C@H]2[C@@H]3C=C(C)C4=CC(=O)CC[C@]4(C)[C@H]3CC[C@@]21C [3:23, 17α-[4-(3-(N,N-bis(2-chloroethyl)amino)-4-methylbenzoyloxy)butanoyloxy]-6-methylpregna-4,6-diene-3,20-dione]
- antitumour activity (Hepatome AH 130): exhibit antitumour activity

Structure (SMILES): CC(=O)[C@@]1(OC(=O)CCCOC(=O)CCCc2ccc(N(CCCl)CCCl)cc2)CC[C@H]2[C@@H]3C=C(Cl)C4=CC(=O)[C@@H]5C[C@@H]5[C@]4(C)[C@H]3CC[C@@]21C [3:24, 6-chloro-17α-[4-(4-(4-(N,N-bis(2-chloroethyl)amino)phenyl)butanoyloxy)butanoyloxy]-1α,2α-methylenepregna-4,6-diene-3,20-dione]
- antitumour activity (Hepatome AH 130): exhibit antitumour activity

Structure (SMILES): CC(=O)[C@@]1(OC(=O)COC(=O)c2ccc(Cl)c(N(CCCl)CCCl)c2)CC[C@H]2[C@@H]3C[C@H](F)C4=CC(=O)CC[C@]4(C)[C@H]3CC[C@@]21C [3:25, 17α-[4-chloro-3-(N,N-bis(2-chloroethyl)amino)benzoyloxyacetoxy]-6α-fluoropregn-4-ene-3,20-dione]
- antitumour activity (Hepatome AH 130): exhibit antitumour activity

Structure (SMILES): CC(=O)[C@@]1(OC(=O)COC(=O)CCOc2ccc(N(CCCl)CCCl)cc2)CC[C@H]2[C@@H]3CCC4=CC(=O)CC[C@]4(C)[C@H]3CC[C@@]21C [3:26, 17α-[3-(4-(N,N-bis(2-chloroethyl)amino)phenoxy)propionyloxyacetoxy]pregn-4-ene-3,20-dione]
- antitumour activity (Hepatome AH 130): exhibit antitumour activity

Structure (SMILES): CC(=O)[C@@]1(OC(=O)CNC(=O)c2ccc(C)c(N(CC(C)Cl)CC(C)Cl)c2)CC[C@H]2[C@@H]3C[C@H](C)C4=CC(=O)CC[C@]4(C)[C@H]3CC[C@@]21C (stereo partly drawn) [4:2, 17α-/3-(N,N-bis(2-chloropropyl)amino)-4-methylbenzoylaminoacetoxy/-6α-methylpregn-4-ene-3,20-dione]
- antitumour activity (Hepatome AH 130): exhibit antitumour activity

Structure (SMILES): C=C1C[C@H]2[C@@H]3C=C(Cl)C4=CC(=O)CC[C@]4(C)[C@H]3CC[C@]2(C)[C@@]1(OC(=O)COC(=O)Nc1ccc(N(CCCl)CCCl)cc1OC)C(C)=O [5:2, 6-chloro-17α-/4-(N,N-bis(2-chloroethyl)amino)-2-methoxyphenylcarbamoyloxyacetoxy/-16-methylenepregna-4,6-diene-3,20-dione]
- antitumour activity (Hepatome AH 130): exhibit antitumour activity

Structure (SMILES): CC(=O)[C@@]1(OC(=O)COC(=O)Oc2ccc(N(CCCl)CCCl)cc2)[C@H](C)C[C@H]2[C@@H]3C=C(Cl)C4=CC(=O)CC[C@]4(C)[C@H]3CC[C@@]21C [5:3, 6-chloro-17α-/4-(N,N-bis(2-chloroethyl)amino)phenoxycarbonyloxyacetoxy/-16α-methylpregna-4,6-diene-3,20-dione]
- antitumour activity (Hepatome AH 130): exhibit antitumour activity

Structure (SMILES): CC(=O)[C@@]1(OC(=O)COC(=O)Oc2ccc(N(CCCl)CCCl)cc2)CC[C@H]2[C@@H]3CCC4=CC(=O)CC[C@]4(C)[C@H]3CC[C@@]21C [5:4, 17α-[4-(N,N-bis(2-chloroethyl)amino)phenoxycarbonyloxyacetoxy]pregn-4-ene-3,20-dione]
- antitumour activity (Hepatome AH 130): exhibit antitumour activity
- antitumour activity [1]: exhibit antitumour activity

Structure (SMILES): CC(=O)[C@@]1(OC(=O)CCCNC(=O)C(C)(C)c2ccc(N(CCCl)CCCl)cc2)CC[C@H]2[C@@H]3CCC4=CC(=O)CC[C@@H]4[C@H]3CC[C@@]21C [6:2, 17α-/4-(2-(4-(N,N-bis(2-chloroethyl)amino)phenyl)-2-methylpropanoylamino)butyanoyloxy/-19-norpregn-4-ene-3,20-dione]
- antitumour activity (Hepatome AH 130): exhibit antitumour activity

Structure (SMILES): CC(=O)[C@@]1(OC(=O)CCCCNC(=O)c2ccc(C)c(N(CCBr)CCBr)c2)CC[C@H]2[C@@H]3C[C@H](F)C4=CC(=O)CC[C@]4(C)[C@H]3CC[C@@]21C [6:3, 17α-/5-(3-(N,N-bis(2-bromoethyl)amino)-4-methylbenzoylamino)pentanoyloxy/-6α-fluoropregn-4-ene-3,20-dione]
- antitumour activity (Hepatome AH 130): exhibit antitumour activity
